Reference: paper PMC10950972, “Relative bioavailability of fedratinib through various alternative oral administration methods in healthy adults” (Cancer Chemotherapy and Pharmacology, 2023)
Read-outs that look alike come from different tables or passages of the source.

Assays:
[1] = Phase 1 relative bioavailability study part 1: plasma pharmacokinetics of fedratinib (2-period crossover); format: in vivo, human; conditions: for AUC(0-t) / AUC(0-inf) / Cmax / Tmax / half-life: human, plasma, po, 400 mg; for half-life: read-out: t½, mean (SD) (converted)
Experimental: Study part 1 was a 2-period, 2-sequence, open-label, crossover design (Fig. 1A). Treatment 1A (reference) consisted of fedratinib 400 mg (4 × 100-mg capsules) administered orally along with approximately 180 mL of a commercially available nutritional supplement (ie, Ensure Plus). Treatment 1B (test) consisted of fedratinib 400 mg dispersed in a nutritional supplement and administered orally. Participants were randomized to receive treatment in one of the following sequences: 1A–1B or 1B–1A. […] No food or beverages (except water and any nutritional supplement administered with the treatment) were allowed for at least 4 h after dosing.
Approximately 1 h before each fedratinib administration, ondansetron oral tablet (film coated) 8 mg was given orally to reduce the potential for fedratinib-related nausea and vomiting. There was a washout period of at least 12 days between each dose of fedratinib. The duration from screening through the follow-up phone call was approximately 10 weeks. Participants resided at the clinical site from days -1 to 23 (study part 1), or days -1 to 35 (study part 2). If a participant discontinued from the study for any reason, an early termination visit was performed, with only the safety assessments scheduled for the day of discharge taking place. Additionally, each participant who discontinued also received a follow-up phone call 4 (± 2) days after completion of the early termination visit.
For study part 1, and part 2 treatments 2A and 2B, blood samples were collected pre-dose (0 h) and at 0.5, 1, 1.5, 2, 3, 4, 6, 8, 12, 24, 48, 72, 120, 168, 192, and 240 h post-dose. For treatment 2C, blood samples were collected pre-dose (0 h) and at 0.5, 1, 1.5, 2, 3, 4, 6, 8, 12, 12.5, 13, 13.5, 14, 15, 16, 18, 24, 48, 72, 120, 168, 192, and 240 h post-dose of the first dose. The plasma concentration of fedratinib was measured using a validated liquid chromatography-tandem mass spectrometry assay with a lower limit of quantification of 1.00 ng/mL [12, 20].
Plasma PK parameters were calculated using noncompartmental methods by a validated PK analysis program (Phoenix® WinNonlin®, v8.3.4 [Certara USA, Inc., Princeton, NJ, USA]) using actual times. The PK parameters determined for fedratinib Cmax, Tmax, AUC from time 0 to the time of the last quantifiable concentration (AUC0–t), AUC from time 0 to infinity (AUC0–∞), and t½. Additionally for treatment 2C, Cmax and Tmax were estimated after both the first dose (Cmax and Tmax) and the second dose (Cmax2 and Tmax2). AUC0–t and AUC0–∞ were estimated from time 0 (the first dose) through 240 h after the first dose. AUC parameters were calculated using the linear-log trapezoidal method.
The sample size for this study was based on consideration of the precision in the comparison of PK parameters, represented by the 90% confidence interval (CI) of the geometric mean ratios of Cmax and AUC of fedratinib. […] Only participants with valid PK data were included in the summary statistics and statistical analysis.
To compare the PK parameters and estimated relative bioavailability of fedratinib following different administration methods in each study part (treatment 1B to 1A, and treatment 2B and 2C to 2A), a linear mixed-effect model with treatment, period, and sequence as fixed effects and participant nested within sequence as a random effect was fitted to the natural log-transformed PK parameters (Cmax, AUC0–t, and AUC0–∞) for use in estimation of effects and construction of CIs.
In study parts 1 and 2, point estimates and 90% CI for the difference between test and reference treatments was exponentiated, and the ratio of geometric means (test/reference) and associated 90% CI was presented on the original scale. For comparison of treatment 2C to 2A in study part 2, the relative bioavailability assessment was based on only AUC. For Tmax, the difference between test and reference was assessed for significance using Wilcoxon signed-rank test. […]

[2] = system: patients with myelofibrosis resistant/intolerant to prior ruxolitinib; design: method as in doi:10.1182/blood-2022-156669; conditions: fedratinib 400 mg/day, FREEDOM trial, 38 patients; cited from earlier work
[3] = Treatment 1B vs 1A (dispersed oral vs intact capsules), linear mixed-effect model

For Cc1cnc(Nc2ccc(OCCN3CCCC3)cc2)nc1Nc1cccc(S(=O)(=O)NC(C)(C)C)c1 [fedratinib], the “AUC0–∞ geometric mean ratio (90% CI)” value [1, 3] was 1.009 (0.939–1.085), the “Cmax geometric mean ratio (90% CI)” value [1, 3] was 1.059 (0.969–1.157) and the AUC(0-t) ([1]; Treatment 1A: single 400 mg oral, 4 × 100-mg intact capsules with nutritional supplement, n = 27, read-out: AUC0–t, geometric mean (Geo. %CV)) was 20000 ng·h/mL. The AUC(0-inf) ([1]; Treatment 1A: single 400 mg oral, 4 × 100-mg intact capsules with nutritional supplement, n = 27, read-out: AUC0–∞, geometric mean (Geo. %CV)) was 22100 ng·h/mL, the Cmax ([1]; Treatment 1A: single 400 mg oral, 4 × 100-mg intact capsules with nutritional supplement, n = 27, read-out: Cmax, geometric mean (Geo. %CV)) was 1320 ng/mL and the Tmax ([1]; Treatment 1A: single 400 mg oral, 4 × 100-mg intact capsules with nutritional supplement, n = 27, read-out: Tmax, median (range)) was 2.1 h. It also gave a half-life ([1]; Treatment 1A: single 400 mg oral, 4 × 100-mg intact capsules with nutritional supplement, n = 27) of 103 h, an AUC(0-t) ([1]; Treatment 1A: single 400 mg oral, intact capsules with nutritional supplement, n = 27, read-out: AUC0–t, geometric mean (statistical analysis)) of 20400 ng·h/mL and an AUC(0-inf) ([1]; Treatment 1A: single 400 mg oral, intact capsules with nutritional supplement, n = 27, read-out: AUC0–∞, geometric mean (statistical analysis)) of 22500 ng·h/mL. For the same compound, the Cmax ([1]; Treatment 1A: single 400 mg oral, intact capsules with nutritional supplement, n = 27, read-out: Cmax, geometric mean (statistical analysis)) was 1350 ng/mL, the Tmax ([1]; Treatment 1A: single 400 mg oral, intact capsules with nutritional supplement, n = 27, read-out: Tmax, median (statistical analysis)) was 2.57 h and the AUC(0-t) ([1]; Treatment 1B: single 400 mg oral, capsule contents dispersed in nutritional supplement, n = 26, read-out: AUC0–t, geometric mean (Geo. %CV)) was 20500 ng·h/mL. For the same compound, the AUC(0-t) ([1]; Treatment 1B: single 400 mg oral, capsule contents dispersed in nutritional supplement, n = 26, read-out: AUC0–t, geometric mean (statistical analysis)) was 20500 ng·h/mL, the AUC(0-inf) ([1]; Treatment 1B: single 400 mg oral, capsule contents dispersed in nutritional supplement, n = 26, read-out: AUC0–∞, geometric mean (Geo. %CV)) was 22700 ng·h/mL and the AUC(0-inf) ([1]; Treatment 1B: single 400 mg oral, capsule contents dispersed in nutritional supplement, n = 26, read-out: AUC0–∞, geometric mean (statistical analysis)) was 22700 ng·h/mL. It also gave a Cmax ([1]; Treatment 1B: single 400 mg oral, capsule contents dispersed in nutritional supplement, n = 26, read-out: Cmax, geometric mean (Geo. %CV)) of 1430 ng/mL, a Cmax ([1]; Treatment 1B: single 400 mg oral, capsule contents dispersed in nutritional supplement, n = 26, read-out: Cmax, geometric mean (statistical analysis)) of 1430 ng/mL and a Tmax ([1]; Treatment 1B: single 400 mg oral, capsule contents dispersed in nutritional supplement, n = 26, read-out: Tmax, median (statistical analysis)) of 2 h. The half-life ([1]; Treatment 1B: single 400 mg oral, capsule contents dispersed in nutritional supplement, n = 26) was 98.7 h, the “Patients achieving ≥ 35% spleen volume reduction at the end of cycle 6” value [2] was 25.7% and the “Patients achieving ≥ 50% reduction in total symptom score at end of cycle 6” value [2] was 44.4%. For the same compound, the “Patients with best overall response of ≥ 35% spleen volume reduction at any time” value [2] was 62.9%.
